The text below walks through data of US8524748B2, “Heteroalkyl biphenyl antagonists of prostaglandin D2 receptors” (Panmira Pharmaceuticals, LLC, priority 2008, dated 2013).

SMILES strings stand for the structures. Some results are limits rather than exact numbers.

The assay addresses T1, human DP2 receptor (Homo sapiens, UniProt Q9Y5Y4).
T1 construct: expressed in transfected cells; membranes prepared from them
T1 sequence (Q9Y5Y4 1-395): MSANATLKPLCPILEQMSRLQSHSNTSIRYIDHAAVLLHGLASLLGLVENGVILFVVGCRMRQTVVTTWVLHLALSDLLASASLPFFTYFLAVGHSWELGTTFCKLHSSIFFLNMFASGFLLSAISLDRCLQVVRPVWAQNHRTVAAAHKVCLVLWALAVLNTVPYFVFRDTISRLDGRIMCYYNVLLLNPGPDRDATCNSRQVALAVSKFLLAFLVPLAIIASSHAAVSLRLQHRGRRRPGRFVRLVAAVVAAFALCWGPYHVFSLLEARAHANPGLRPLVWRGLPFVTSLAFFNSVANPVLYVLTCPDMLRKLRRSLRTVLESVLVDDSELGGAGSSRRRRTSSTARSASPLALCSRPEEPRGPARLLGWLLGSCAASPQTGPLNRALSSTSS
Briefly: DP2/CRTH2 radioligand binding assay using [3H]PGD2. As to conditions: membranes of HEK293 cells stably expressing recombinant human DP2; 1 nM [3H]PGD2; read-out: hDP2 IC50. As to the method:
The ability of a compound to bind to the human DP2 receptor is assessed via a radioligand binding assay using [^3H]PGD2. HEK293 cells stably expressing recombinant human DP2 are resuspended in 10 mM Hepes, 7.4 containing 1 mM DTT, lysed and centrifuged at 75,000×g to pellet the membranes. The membranes are resuspended in 10 mM Hepes, 7.4 containing 1 mM DTT and 10% glycerol to approximately 5 mg protein/ml. Membranes (2-10 μg protein/well) are incubated in 96-well plates with 1 nM [^3H]PGD2 and test compound in Assay Buffer (50 mM Hepes, 10 mM MnCl2, 1 mM EDTA, plus or minus 0.2% human serum albumin, pH 7.4) for 60 minutes at room temperature. The reactions are terminated by rapid filtration through Whatman GF/C glass fibre filter plates. The filter plates were pre-soaked in 0.33% polythylenimine for 30 minutes at room temperature then washed in Wash Buffer (50 mM Hepes, 0.5 M NaCl pH 7.4) prior to harvesting. After harvesting, the filter plates are washed 3 times with 1 ml cold Wash Buffer then dried. Scintillant is then added to the plates and the radioactivity retained on the filters is determined on a Packard TopCount (Perkin Elmer). Specific binding is determined as total radioactive binding minus non-specific binding in the presence of 10 μM PGD2. IC50s were determined using GraphPad prism analysis of drug titration curves.
`COc1ccc(CC(=O)O)cc1-c1ccc(C(F)(F)F)cc1CSc1ccccc1` [Compound 1-1, (6-Methoxy-2′-phenylsulfanylmethyl-4′-trifluoromethyl-biphenyl-3-yl)-acetic acid]: the IC50 was less than 1 µM.
Under `COc1ccc(CC(=O)O)cc1-c1ccc(C(F)(F)F)cc1CSCc1ccccc1` [Compound 1-2, (2′-Benzylsulfanylmethyl-6-methoxy-4′-trifluoromethyl-biphenyl-3-yl)-acetic acid] stands less than 1 µM; under `COc1ccc(CC(=O)O)cc1-c1ccc(C(F)(F)F)cc1CSC(C)(C)C` [Compound 1-3, (2′-tert-Butylsulfanylmethyl-6-methoxy-4′-trifluoromethyl-biphenyl-3-yl)-acetic acid], 1 to 10 µM; under `COc1ccc(CC(=O)O)cc1-c1ccc(C(F)(F)F)cc1CSc1nnc(C)s1` [Compound 1-4, [6-Methoxy-2′-(5-methyl-[1,3,4]thiadiazol-2-ylsulfanylmethyl)-4′-trifluoromethyl-biphenyl-3-yl]-acetic acid], less than 1 µM.
Next, `COc1ccc(CC(=O)O)cc1-c1ccc(C(F)(F)F)cc1CSCC(F)(F)F` [Compound 1-5, [6-Methoxy-2′-(2,2,2-trifluoro-ethylsulfanylmethyl)-4′-trifluoromethyl-biphenyl-3-yl]-acetic acid]: 1 to 10 µM; `COc1ccc(CC(=O)O)cc1-c1ccc(C(F)(F)F)cc1COc1ccccc1` [Compound 1-6, (6-Methoxy-2′-phenoxymethyl-4′-trifluoromethyl-biphenyl-3-yl)-acetic acid]: 1 to 10 µM.
Under `COc1ccc(CC(=O)O)cc1-c1ccc(C(F)(F)F)cc1C[S+]([O-])c1ccccc1` (centres unmarked) [Compound 1-7, (2′-Benzenesulfinylmethyl-6-methoxy-4′-trifluoromethyl-biphenyl-3-yl)-acetic acid] stands greater than 10 µM; under `COc1ccc(CC(=O)O)cc1-c1ccc(C(F)(F)F)cc1C[S+]([O-])Cc1ccccc1` (centres unmarked) [Compound 1-8, (6-Methoxy-2′-phenylmethanesulfinylmethyl-4′-trifluoromethyl-biphenyl-3-yl)-acetic acid], greater than 10 µM.
As to `COc1ccc(CC(=O)O)cc1-c1ccc(C(F)(F)F)cc1C[S+]([O-])C(C)(C)C` (centres unmarked) [Compound 1-9, [6-Methoxy-2′-(2-methyl-propane-2-sulfinylmethyl)-4′-trifluoromethyl-biphenyl-3-yl]-acetic acid], the IC50 is greater than 10 µM.
Next, `COc1ccc(CC(=O)O)cc1-c1ccc(C(F)(F)F)cc1C[S+]([O-])c1nnc(C)s1` (centres unmarked) [Compound 1-10, [6-Methoxy-2′-(5-methyl-[1,3,4]thiadiazole-2-sulfinylmethyl)-4′-trifluoromethyl-biphenyl-3-yl]-acetic acid]: greater than 10 µM; `COc1ccc(CC(=O)O)cc1-c1ccc(C(F)(F)F)cc1CS(=O)(=O)c1ccccc1` [Compound 1-11, (2′-Benzenesulfonylmethyl-6-methoxy-4′-trifluoromethyl-biphenyl-3-yl)-acetic acid]: 1 to 10 µM; `COc1ccc(CC(=O)O)cc1-c1ccc(C(F)(F)F)cc1CS(=O)(=O)Cc1ccccc1` [Compound 1-12, (6-Methoxy-2′-phenylmethanesulfonylmethyl-4′-trifluoromethyl-biphenyl-3-yl)-acetic acid]: 1 to 10 µM.
Under `COc1ccc(CC(=O)O)cc1-c1ccc(C(F)(F)F)cc1CS(=O)(=O)C(C)(C)C` [Compound 1-13, [6-Methoxy-2′-(2-methyl-propane-2-sulfonylmethyl)-4′-trifluoromethyl-biphenyl-3-yl]-acetic acid] stands greater than 10 µM; under `COc1ccc(CC(=O)O)cc1-c1ccc(C(F)(F)F)cc1CS(=O)(=O)c1nnc(C)s1` [Compound 1-14, [6-Methoxy-2′-(5-methyl-[1,3,4]thiadiazole-2-sulfonylmethyl)-4′-trifluoromethyl-biphenyl-3-yl]-acetic acid], 1 to 10 µM; under `CCN(Cc1ccccc1)C(=O)OCc1cc(C(F)(F)F)ccc1-c1cc(CC(=O)O)ccc1OC` [Compound 1-15, {2′-[(Benzyl-ethyl-carbamoyloxy)-methyl]-6-methoxy-4′-trifluoromethyl-biphenyl-3-yl}-acetic acid], 1 to 10 µM.
Under `CCN(Cc1ccccc1)C(=O)OCc1cc(C(F)(F)F)ccc1-c1cc(CC(=O)O)ccc1F` [Compound 1-16, {2′-[(Benzyl-ethyl-carbamoyloxy)-methyl]-6-fluoro-4′-trifluoromethyl-biphenyl-3-yl}-acetic acid] stands less than 1 µM; under `O=C(O)CCn1c2c(c3ccccc31)C[C@H](NS(=O)(=O)c1ccc(F)cc1)CC2` [Ramatroban, reference compound], less than 1 µM.

In general, IC50 refers to the concentration at which inhibition is half-maximal.
